Test results from PubChem BioAssay (NCI).
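A five-concentration, 48-hour dose response in 96-well plates underlies each endpoint, interpolated linearly between surrounding concentrations. At the TGI there is no net growth.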

What was measured:
Assay in all cases: NCI tumour cell line growth inhibition, 48 h
DLD-1 colon = tested on: DLD-1 colon
DMS 114 small cell lung = tested on: DMS 114 small cell lung
DMS 273 small cell lung = tested on: DMS 273 small cell lung
HOP-18 NSCLC = tested on: HOP-18 NSCLC
M19-MEL melanoma = tested on: M19-MEL melanoma
P388 leukemia = tested on: P388 leukemia
RXF-631 renal = tested on: RXF-631 renal
SN12K1 renal = tested on: SN12K1 renal
XF 498 CNS = tested on: XF 498 CNS
P388/ADR leukemia = tested on: P388/ADR leukemia

SMILES	TGI (DLD-1 colon)	TGI (DMS 114 small cell lung)	TGI (DMS 273 small cell lung)	TGI (HOP-18 NSCLC)	TGI (M19-MEL melanoma)	TGI (P388 leukemia)	TGI (RXF-631 renal)	TGI (SN12K1 renal)	TGI (XF 498 CNS)	TGI (P388/ADR leukemia)
C=C(NC(=O)C(=C)NC(=O)c1csc(C2=NC3c4csc(n4)C4NC(=O)c5csc(n5)C(C(C)(O)C(C)O)NC(=O)C5CSC(=N5)/C(=C/C)NC(=O)C(C(C)O)NC(=O)c5csc(n5)C3(CC2)NC(=O)C(C)NC(=O)C(=C)NC(=O)C(C)NC(=O)C(C(C)CC)NC2C=Cc3c(C(C)O)cc(nc3C2O)C(=O)OC4C)n1)C(N)=O (configuration not stated)	4.44 µM	7.69 µM	2.8 µM	16.8 µM	3.05 µM	190 nM	18 µM	2570 nM	–	–
O=C1CC(c2ccccc2)=Nc2ccccc2N1	> 100 µM	–	> 100 µM	> 100 µM	> 100 µM	–	–	–	> 100 µM	–
C=C1C(=O)O[C@@H]2[C@H](O)[C@@H](C)[C@@H]3C=CC(=O)[C@@]3(C)[C@@H](OC(=O)/C(C)=C/C)[C@H]12	1.31 µM	3.63 µM	3.56 µM	4.75 µM	1.22 µM	2740 nM	–	688 nM	0.867 µM	1080 nM
O=C(c1ccc(Cl)cc1)N(C(=S)N1CCN(c2ccccn2)CC1)C1CCCCC1	> 100 µM	> 100 µM	> 100 µM	> 100 µM	> 100 µM	–	–	–	80.3 µM	–
COc1ccc([C@@H]2CC(=O)N2)cc1	> 100 µM	> 100 µM	> 100 µM	> 100 µM	–	–	–	–	> 100 µM	–
O=C(O)c1ccc(C2=Cc3cc(Cl)ccc3OC2)cc1	> 100 µM	> 100 µM	> 100 µM	> 100 µM	> 100 µM	–	–	–	> 100 µM	–
O=C1/C=C(/c2ccc(O)cc2)[C@@H](O)Cc2ccc(O)cc2O1	> 100 µM	> 100 µM	–	–	> 100 µM	–	> 100 µM	–	–	–
CCOC(=O)C(Cc1c[nH]c2cc([N+](=O)[O-])ccc12)NS(=O)(=O)c1ccc2ccccc2c1 (configuration not stated)	65.7 µM	38.3 µM	32.1 µM	> 100 µM	30.9 µM	–	–	–	31.3 µM	–
O=C(CSc1nc(-c2ccccc2)c(-c2ccccc2)[nH]1)N/N=C/c1ccc(O)cc1	> 100 µM	57.5 µM	48.3 µM	> 100 µM	51 µM	–	–	–	99.6 µM	–
NC1=NS(=O)(=O)Nc2nc(-c3ccccc3)[nH]c21	> 100 µM	> 100 µM	> 100 µM	> 100 µM	> 100 µM	–	–	–	> 100 µM	–
O=[N+]([O-])C(/C=N/Nc1ccccc1)/C=N/Nc1ccccc1	> 100 µM	> 100 µM	> 100 µM	> 100 µM	> 100 µM	–	–	–	> 100 µM	–
